For the assay, the system named is retina explants from rd1 mice. The assay is described as follows: in vitro organ culture of retina explants under serum-free conditions. It counts as cell-based, mouse. To be noted: for Number of rows of photoreceptors average ± SD, (n): rd/rd retina explants, glutathione 3 μg/ml, ALA 2 μg/ml, zeaxanthin 0.3 μg/ml, lutein 0.3 μg/ml, control 1.5 ± 0.3. The procedure: The in vitro-experiments were performed on an organ culture of retina explants under serum-free conditions, as described in […], Ahuja P, Holmqvist B, Azadi […], van Veen T (2001) “Mouse retina explants after long-term culture in serum-free medium.”, J Chem Neuroanat 22: 263-273. The described technique was carried out on retina explants from rd1 mice as used in the in-vivo experiments. Retinas of rd1 mice were transferred at PN3 to an in vitro culture on flat nitrocellulose membranes and were kept in […] medium for 8 and 21 days, corresponding with the age PN11 and […] of the animals. All experiments were performed paired, wherein untreated retinas were compared to retinas which were exposed to a treatment. […] In order to achieve these concentrations the correct measured quantities of stock solution as described for the in vivo experiments were added to the medium. […] The rows of photoreceptors in the outer nuclear layer (ONL) were counted in 5 slices of each composition, wherein of each slice six different sections were analysed corresponding with the sections in the in vivo experiments. The differences between treated and untreated retinas were compared statistically with Student's paired t-test, or Student's unpaired t-test, wherein differences in which p<0.05 were deemed significant.

Molecules are shown by their SMILES.

As for `CC1=C[C@H](O)CC(C)(C)[C@H]1/C=C/C(C)=C/C=C/C(C)=C/C=C/C=C(C)/C=C/C=C(C)/C=C/C1=C(C)C[C@@H](O)CC1(C)C` [Lutein, (3R, 3′R, 6′R)-(3,c-carotene-3,3′-diol], the “Number of rows of photoreceptors average ± SD, (n)” value is 2.0 ± 0.8 (n-6) rows.

With `O=C(O)CCCCC1CCSS1` (stereo not drawn) [alpha lipoic acid, thioctic acid], the “Number of rows of photoreceptors average ± SD, (n)” value is on record as 1.8 ± 0.5 (n-6) rows.

For `N[C@@H](CCC(=O)N[C@@H](CS)C(=O)NCC(=O)O)C(=O)O` [glutathione, L-glutathione], the “Number of rows of photoreceptors average ± SD, (n)” value was 2.0 ± 0.9 (n-6) rows. Further, the “number of rows of photoreceptor cells, treated versus untreated explant” value (rd1 explant, FIGS. 6a and 6b) is “almost the same”.

On to `CC1=C(/C=C/C(C)=C/C=C/C(C)=C/C=C/C=C(C)/C=C/C=C(C)/C=C/C2=C(C)C[C@@H](O)CC2(C)C)C(C)(C)C[C@H](O)C1` [zeaxanthin, (3R, 3′R)-β,β-carotene-3,3′-diol], for which the “Number of rows of photoreceptors average ± SD, (n)” value is reported as 1.9 ± 0.7 (n-6) rows.
